Results published in patent US20050124664A1, “Urea thiadiazole inhibitors of plasminogen activator inhibior-1” (priority 2003, published 2005).

Row | melting point | SMILES
1 | 305 °C | COC(=O)c1cccc(NC(=O)Nc2nnc(-c3cc(Cl)cc(Cl)c3O)s2)c1 [Example 3, 3-{3-[5-(3,5-Dichloro-2-hydroxy-phenyl)-[1,3,4]thiadiazol-2-yl]-ureido}-benzoic Acid Methyl Ester]
2 | 330 °C | COC(=O)c1ccc(NC(=O)Nc2nnc(-c3cc(Cl)cc(Cl)c3O)s2)cc1 [Example 4, 4-{3-[5-(3,5-Dichloro-2-hydroxy-phenyl)-[1,3,4]thiadiazol-2-yl]-ureido}-benzoic Acid Methyl Ester]
